ChEMBL document CHEMBL1152560, “Substituted 2-arylbenzothiazoles as kinase inhibitors: hit-to-lead optimization” (Bioorg Med Chem, 2009)

What was measured:
[1] = molecular target: T1, Lymphokine-activated killer T-cell-originated protein kinase (Homo sapiens) (UniProt Q96KB5); experiment: Residual activity of PBK at 0.1 uM by microplate scintillation counting
T1 sequence (whole entry): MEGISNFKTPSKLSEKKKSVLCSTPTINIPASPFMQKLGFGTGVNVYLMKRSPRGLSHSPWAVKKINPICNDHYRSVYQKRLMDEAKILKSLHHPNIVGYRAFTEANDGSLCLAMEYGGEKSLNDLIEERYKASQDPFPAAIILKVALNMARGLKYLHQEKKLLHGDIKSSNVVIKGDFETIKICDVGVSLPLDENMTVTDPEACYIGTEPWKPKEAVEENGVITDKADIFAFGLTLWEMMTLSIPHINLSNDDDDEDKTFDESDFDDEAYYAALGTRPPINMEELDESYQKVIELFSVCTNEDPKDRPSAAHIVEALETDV

[2] = molecular target: T2, Discoidin domain-containing receptor 2 (Homo sapiens) (UniProt Q16832); experiment: Residual activity of DDR2 at 1 uM by microplate scintillation counting
T2 sequence (whole entry): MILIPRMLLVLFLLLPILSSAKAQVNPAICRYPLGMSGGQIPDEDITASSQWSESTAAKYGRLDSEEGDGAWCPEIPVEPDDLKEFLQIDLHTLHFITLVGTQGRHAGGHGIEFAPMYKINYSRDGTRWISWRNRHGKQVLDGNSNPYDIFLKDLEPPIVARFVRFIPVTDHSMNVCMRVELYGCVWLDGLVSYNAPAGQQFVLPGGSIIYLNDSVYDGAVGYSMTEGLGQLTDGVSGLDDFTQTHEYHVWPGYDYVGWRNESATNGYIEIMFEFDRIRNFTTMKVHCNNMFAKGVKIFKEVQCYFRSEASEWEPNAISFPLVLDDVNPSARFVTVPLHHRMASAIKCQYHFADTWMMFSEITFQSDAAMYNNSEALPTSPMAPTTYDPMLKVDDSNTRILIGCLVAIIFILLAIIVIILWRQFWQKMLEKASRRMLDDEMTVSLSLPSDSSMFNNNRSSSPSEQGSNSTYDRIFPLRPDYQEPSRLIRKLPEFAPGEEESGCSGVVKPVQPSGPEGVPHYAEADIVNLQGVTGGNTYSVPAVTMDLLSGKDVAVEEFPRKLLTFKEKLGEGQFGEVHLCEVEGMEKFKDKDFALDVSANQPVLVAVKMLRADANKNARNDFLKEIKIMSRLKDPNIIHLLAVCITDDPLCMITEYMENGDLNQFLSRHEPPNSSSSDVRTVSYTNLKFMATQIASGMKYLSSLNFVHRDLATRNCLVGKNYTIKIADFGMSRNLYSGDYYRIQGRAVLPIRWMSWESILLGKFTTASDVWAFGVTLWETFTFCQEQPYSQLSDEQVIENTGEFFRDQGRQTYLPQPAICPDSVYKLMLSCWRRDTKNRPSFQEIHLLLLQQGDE

[3] = molecular target: Casein kinase I isoform epsilon (Homo sapiens) (UniProt P49674); experiment: Residual activity of CK1epsilon at 1 uM by microplate scintillation counting
Casein kinase I isoform epsilon (Homo sapiens), sequence (P49674 whole entry, looked up, canonical isoform): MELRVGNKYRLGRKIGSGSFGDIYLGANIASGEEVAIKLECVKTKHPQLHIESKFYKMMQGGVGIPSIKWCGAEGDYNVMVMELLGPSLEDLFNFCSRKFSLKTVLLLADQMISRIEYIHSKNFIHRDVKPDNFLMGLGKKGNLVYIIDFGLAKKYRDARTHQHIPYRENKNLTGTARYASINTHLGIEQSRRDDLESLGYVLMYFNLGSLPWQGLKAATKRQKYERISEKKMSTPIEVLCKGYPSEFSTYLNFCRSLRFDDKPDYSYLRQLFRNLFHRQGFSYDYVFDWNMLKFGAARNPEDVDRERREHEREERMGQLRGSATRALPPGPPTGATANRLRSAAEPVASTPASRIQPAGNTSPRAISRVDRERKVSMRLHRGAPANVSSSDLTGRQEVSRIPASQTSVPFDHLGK

[4] = molecular target: Tyrosine-protein kinase HCK (Homo sapiens) (UniProt P08631); experiment: Residual activity of HCK at 10 uM by microplate scintillation counting
Tyrosine-protein kinase HCK (Homo sapiens), sequence (P08631 2-526 limits assumed): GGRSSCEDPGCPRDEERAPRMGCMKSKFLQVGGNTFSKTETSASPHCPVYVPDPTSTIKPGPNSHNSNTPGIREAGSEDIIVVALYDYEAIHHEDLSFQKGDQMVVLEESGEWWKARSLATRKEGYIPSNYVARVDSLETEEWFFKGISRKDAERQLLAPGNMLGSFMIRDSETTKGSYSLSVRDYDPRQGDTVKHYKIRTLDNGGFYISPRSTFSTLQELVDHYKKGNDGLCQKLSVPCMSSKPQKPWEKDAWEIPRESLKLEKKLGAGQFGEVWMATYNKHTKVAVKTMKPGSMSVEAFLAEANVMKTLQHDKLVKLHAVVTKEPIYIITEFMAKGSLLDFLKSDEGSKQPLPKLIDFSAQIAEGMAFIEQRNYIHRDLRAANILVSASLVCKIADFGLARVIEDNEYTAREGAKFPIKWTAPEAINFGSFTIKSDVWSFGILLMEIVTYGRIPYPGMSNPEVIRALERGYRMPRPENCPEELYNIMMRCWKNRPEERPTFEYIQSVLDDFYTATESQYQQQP

[5] = molecular target: T3, Serine/threonine-protein kinase 4 (Homo sapiens) (UniProt Q13043); experiment: Residual activity of MST1 at 0.1 uM by microplate scintillation counting
T3 sequence (whole entry): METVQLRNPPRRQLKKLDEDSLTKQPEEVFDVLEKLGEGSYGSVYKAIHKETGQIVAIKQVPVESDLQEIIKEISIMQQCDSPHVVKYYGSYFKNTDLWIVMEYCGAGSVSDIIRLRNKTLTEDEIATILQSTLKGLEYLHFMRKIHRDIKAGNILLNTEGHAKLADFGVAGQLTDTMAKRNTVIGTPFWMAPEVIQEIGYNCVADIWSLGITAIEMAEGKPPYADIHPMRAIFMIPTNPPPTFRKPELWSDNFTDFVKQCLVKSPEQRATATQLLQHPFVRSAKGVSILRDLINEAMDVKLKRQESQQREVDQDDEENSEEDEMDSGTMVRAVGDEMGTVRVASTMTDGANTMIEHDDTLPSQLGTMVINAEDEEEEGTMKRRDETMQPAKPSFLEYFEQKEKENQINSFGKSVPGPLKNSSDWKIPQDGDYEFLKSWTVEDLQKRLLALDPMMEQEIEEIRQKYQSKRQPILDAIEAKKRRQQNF

[6] = molecular target: Calcium/calmodulin-dependent protein kinase type II subunit delta (Homo sapiens) (UniProt Q13557); experiment: Residual activity of CAMK2D at 1 uM by microplate scintillation counting
Calcium/calmodulin-dependent protein kinase type II subunit delta (Homo sapiens), sequence (Q13557 whole entry): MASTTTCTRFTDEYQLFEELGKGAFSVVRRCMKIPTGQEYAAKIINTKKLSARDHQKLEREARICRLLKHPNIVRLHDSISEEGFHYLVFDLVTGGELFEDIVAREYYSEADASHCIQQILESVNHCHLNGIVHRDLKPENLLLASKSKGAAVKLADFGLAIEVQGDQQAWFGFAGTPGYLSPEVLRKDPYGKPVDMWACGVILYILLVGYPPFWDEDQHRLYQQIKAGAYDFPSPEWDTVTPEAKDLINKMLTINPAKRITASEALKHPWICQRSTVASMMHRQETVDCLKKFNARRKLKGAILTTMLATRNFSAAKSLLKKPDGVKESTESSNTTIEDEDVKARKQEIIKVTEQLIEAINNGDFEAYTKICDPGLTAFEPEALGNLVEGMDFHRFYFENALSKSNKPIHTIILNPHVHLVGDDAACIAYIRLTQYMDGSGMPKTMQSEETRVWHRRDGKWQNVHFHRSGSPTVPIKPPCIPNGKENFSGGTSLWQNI

[7] = molecular target: Insulin-like growth factor 1 receptor (Homo sapiens) (UniProt P08069); experiment: Residual activity of IGF1R at 0.1 uM by microplate scintillation counting
Insulin-like growth factor 1 receptor (Homo sapiens), sequence (P08069 31-736 limits assumed): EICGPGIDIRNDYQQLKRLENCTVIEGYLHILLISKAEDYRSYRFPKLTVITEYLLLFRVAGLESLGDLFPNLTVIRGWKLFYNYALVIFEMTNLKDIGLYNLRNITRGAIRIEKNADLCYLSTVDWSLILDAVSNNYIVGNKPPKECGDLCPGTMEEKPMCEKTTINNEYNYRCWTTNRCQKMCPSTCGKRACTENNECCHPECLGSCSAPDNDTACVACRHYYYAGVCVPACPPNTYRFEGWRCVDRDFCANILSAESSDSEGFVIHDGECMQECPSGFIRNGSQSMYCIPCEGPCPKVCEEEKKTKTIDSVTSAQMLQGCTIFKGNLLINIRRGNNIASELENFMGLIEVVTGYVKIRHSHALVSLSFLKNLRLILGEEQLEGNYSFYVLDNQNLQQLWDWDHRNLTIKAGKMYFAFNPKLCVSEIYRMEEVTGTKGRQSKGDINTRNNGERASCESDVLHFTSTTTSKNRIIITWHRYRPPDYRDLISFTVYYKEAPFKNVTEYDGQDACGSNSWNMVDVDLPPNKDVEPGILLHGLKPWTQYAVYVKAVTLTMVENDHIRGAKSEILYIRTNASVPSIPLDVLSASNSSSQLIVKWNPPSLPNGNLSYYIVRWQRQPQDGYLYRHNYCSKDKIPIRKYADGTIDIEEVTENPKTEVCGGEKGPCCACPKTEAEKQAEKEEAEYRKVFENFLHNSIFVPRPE
Insulin-like growth factor 1 receptor (Homo sapiens), sequence (P08069 741-1367 limits assumed): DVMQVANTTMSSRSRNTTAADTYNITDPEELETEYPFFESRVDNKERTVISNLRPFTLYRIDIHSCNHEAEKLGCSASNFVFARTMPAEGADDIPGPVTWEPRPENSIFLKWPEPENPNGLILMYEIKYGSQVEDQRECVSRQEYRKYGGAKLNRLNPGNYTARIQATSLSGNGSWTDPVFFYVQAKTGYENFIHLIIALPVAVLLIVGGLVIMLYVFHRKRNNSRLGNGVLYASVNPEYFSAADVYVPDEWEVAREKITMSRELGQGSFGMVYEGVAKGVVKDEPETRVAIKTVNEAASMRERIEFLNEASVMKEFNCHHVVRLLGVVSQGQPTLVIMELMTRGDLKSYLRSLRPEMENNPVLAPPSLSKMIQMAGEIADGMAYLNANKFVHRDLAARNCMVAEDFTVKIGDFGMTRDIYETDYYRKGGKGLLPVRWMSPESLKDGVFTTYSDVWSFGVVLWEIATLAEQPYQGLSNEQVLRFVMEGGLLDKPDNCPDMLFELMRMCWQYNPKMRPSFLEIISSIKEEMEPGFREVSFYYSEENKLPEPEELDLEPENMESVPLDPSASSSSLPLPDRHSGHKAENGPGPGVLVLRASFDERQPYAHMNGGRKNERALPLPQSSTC

[8] = molecular target: T4, Protein kinase C iota type (Homo sapiens) (UniProt P41743); experiment: Residual activity of PKCiota at 10 uM by microplate scintillation counting
T4 sequence (whole entry): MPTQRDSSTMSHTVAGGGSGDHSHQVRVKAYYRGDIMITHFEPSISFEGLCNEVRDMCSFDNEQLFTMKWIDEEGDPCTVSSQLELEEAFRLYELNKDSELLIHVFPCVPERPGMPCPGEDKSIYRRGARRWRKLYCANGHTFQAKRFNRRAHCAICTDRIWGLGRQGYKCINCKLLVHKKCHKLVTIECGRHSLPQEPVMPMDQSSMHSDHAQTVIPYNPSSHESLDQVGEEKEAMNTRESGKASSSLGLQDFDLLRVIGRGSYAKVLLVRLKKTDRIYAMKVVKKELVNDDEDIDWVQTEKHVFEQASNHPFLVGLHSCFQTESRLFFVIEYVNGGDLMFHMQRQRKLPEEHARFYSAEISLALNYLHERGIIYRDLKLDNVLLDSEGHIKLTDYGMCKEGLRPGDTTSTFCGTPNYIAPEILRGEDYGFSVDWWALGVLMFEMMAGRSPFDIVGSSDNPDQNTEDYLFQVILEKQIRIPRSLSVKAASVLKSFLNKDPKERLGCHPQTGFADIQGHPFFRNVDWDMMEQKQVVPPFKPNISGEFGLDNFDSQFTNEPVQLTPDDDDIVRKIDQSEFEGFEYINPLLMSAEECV

[9] = molecular target: Protein kinase C eta type (Homo sapiens) (UniProt P24723); experiment: Residual activity of PKCeta at 10 uM by microplate scintillation counting
Protein kinase C eta type (Homo sapiens), sequence (P24723 whole entry): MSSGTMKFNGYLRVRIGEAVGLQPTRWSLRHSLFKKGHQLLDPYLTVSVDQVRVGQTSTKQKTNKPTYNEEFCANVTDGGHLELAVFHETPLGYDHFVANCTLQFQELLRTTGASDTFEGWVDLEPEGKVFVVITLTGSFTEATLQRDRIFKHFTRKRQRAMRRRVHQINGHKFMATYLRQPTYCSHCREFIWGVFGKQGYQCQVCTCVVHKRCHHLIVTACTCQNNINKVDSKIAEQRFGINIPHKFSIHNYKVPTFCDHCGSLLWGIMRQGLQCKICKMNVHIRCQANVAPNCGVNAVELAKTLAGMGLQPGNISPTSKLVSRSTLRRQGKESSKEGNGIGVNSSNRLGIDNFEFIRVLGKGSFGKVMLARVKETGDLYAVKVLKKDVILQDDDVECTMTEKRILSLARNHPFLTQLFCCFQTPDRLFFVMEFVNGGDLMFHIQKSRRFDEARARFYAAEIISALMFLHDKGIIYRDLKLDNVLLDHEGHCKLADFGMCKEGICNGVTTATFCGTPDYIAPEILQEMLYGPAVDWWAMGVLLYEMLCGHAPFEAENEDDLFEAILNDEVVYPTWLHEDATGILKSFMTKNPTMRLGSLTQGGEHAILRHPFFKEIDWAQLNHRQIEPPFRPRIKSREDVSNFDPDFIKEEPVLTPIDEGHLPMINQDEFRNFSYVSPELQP

[10] = molecular target: Serine/threonine-protein kinase 33 (Homo sapiens) (UniProt Q9BYT3); experiment: Residual activity of STK33 at 1 uM by microplate scintillation counting
Serine/threonine-protein kinase 33 (Homo sapiens), sequence (Q9BYT3 whole entry, looked up): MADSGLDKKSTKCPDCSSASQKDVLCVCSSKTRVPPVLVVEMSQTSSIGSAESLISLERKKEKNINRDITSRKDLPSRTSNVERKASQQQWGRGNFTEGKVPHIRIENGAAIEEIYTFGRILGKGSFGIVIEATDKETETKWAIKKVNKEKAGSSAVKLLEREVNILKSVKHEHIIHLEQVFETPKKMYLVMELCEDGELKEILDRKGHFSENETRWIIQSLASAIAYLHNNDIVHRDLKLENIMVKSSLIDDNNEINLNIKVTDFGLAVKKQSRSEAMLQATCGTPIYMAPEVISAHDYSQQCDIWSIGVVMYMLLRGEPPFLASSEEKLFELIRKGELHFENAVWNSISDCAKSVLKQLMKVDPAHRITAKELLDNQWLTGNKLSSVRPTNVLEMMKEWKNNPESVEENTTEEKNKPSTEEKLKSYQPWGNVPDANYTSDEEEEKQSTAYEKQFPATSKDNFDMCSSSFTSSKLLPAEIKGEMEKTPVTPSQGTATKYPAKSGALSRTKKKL

residual activity [2]	residual activity [3]	residual activity [4]	residual activity [5]	residual activity [6]	residual activity [7]	residual activity [8]	residual activity [9]	residual activity [10]	Compound	residual activity [1]
99%	107%	187%	96%	96%	114%	51%	81%	84%	COc1cc2c(Oc3ccc(-c4nc5ccccc5s4)cc3)ncnc2cc1OCCCN1CCCC1	110%
79%	94%	155%	96%	92%	99%	44%	71%	72%	COc1cc2c(Oc3ccc(-c4nc5ccccc5s4)cc3)ncnc2cc1OCCCN1CCN(C)CC1	96%
88%	101%	78%	104%	97%	113%	46%	55%	107%	COc1cc2c(Oc3ccc(-c4nc5ccccc5s4)cc3F)ncnc2cc1OCCCN1CCN(C)CC1	91%
